Values of other authors in patent US8633181B2, “Treatment of cutaneous hemangioma” (Rutgers, The State University of New Jersey, priority 2009, dated 2014).

Tested on: severe hemangioma of infants
Conditions: systemic propranolol

CC(C)NCC(O)COc1cccc2ccccc12 (stereo not shown) [propranolol]
time to significant shrinkage of the hemangioma after initiation: about 24 hours
